Results as given in PMC8495455, “Discovery of a transdermally deliverable pentapeptide for activating AdipoR1 to promote hair growth” (EMBO Molecular Medicine, 2021).
“And” between values parts separate entries of the source, which are not always exact repeats. Identical values can stand only once.

Columns and labels:
[1] = tested on: matrix cells of human HF bulbs; test: IF staining Ki-67 of ex vivo cultured HF bulb; assay type: cell-based; conditions: for Numbers of Ki-67-positive cells normalized to DAPI-stained cells: ex vivo cultured HF bulb, individual HFs, n = 8
From the text: We next investigated whether P5 can reproduce the effects of APN on hair growth promotion ex vivo (Won et al, [2012]) using ex vivo human HF organ culture model. […] The Ki‐67‐positive cell portion of the matrix area in the P5‐treated HFs was higher than that in the vehicle‐treated group (Fig 3E).
Paraffin‐embedded mouse cutaneous back tissue was sectioned (4 μm thickness) and stained with hematoxylin and eosin. For IF staining, human ORS cells cultured in FiTC‐P5, sectioned paraffin‐embedded human HFs (7 μm thickness), and sectioned paraffin‐embedded mouse cutaneous dorsal tissue or human skin tissue (5 μm thickness) were incubated at 4°C overnight with the following primary antibodies diluted in the diluent reagent (Invitrogen): phospho‐AMPK (#2535, 1:100; Cell Signaling), Ki‐67 (#M7240, 1:200; Dako), versican (#ab177480, 1:200; Abcam), or AdipoR1 antibody (#ab126611, 1:200; Abcam). After three washes with PBS, the slides were incubated with the secondary Alexa Fluor 488‐labeled anti‐mouse or rabbit IgG antibody (#ab150077, #ab150113, 1:200; Invitrogen), or Alexa Fluor 594‐labeled anti‐rabbit IgG antibody (#a11012, 1:200; Invitrogen) at 25°C for 1 h. Nuclei were counterstained with 4′,6‐diamidino‐2‐phenylindole (DAPI; #D1306, 1:1,000; Invitrogen). Microscopic observations were performed with a Nikon Eclipse Ci‐L microscope (Nikon). IF intensity was observed and recorded with a Nikon Eclipse Ni‐E fluorescence microscope (Nikon).

PDGFA mRNA = test: qRT-PCR growth factor gene expression in DP cells, PDGFA; assay type: cell-based, human; conditions: for mRNA_PDGFA: DP cells
From the text: (§1) Next, we investigated the downstream effects of P5 on hair growth factor genes and proteins in DP cells. […] We tested whether P5 can also increase the mRNA levels and proteins of hair growth factors in DP cells: IGF‐1, VEGF, HGF, platelet‐derived growth factor alpha (PDGFA), and fibroblast growth factor (FGF) 7, which are known to induce or maintain the anagen phase of the hair cycle (Jindo et al, [1994]; Philpott et al, [1994]; Yano et al, [2001]; Jang, [2005]; Tomita et al, [2006]; Iino et al, [2007]).
(§2) Total RNA was isolated from P5‐treated DP cells using RNAiso Plus (#9109; TaKaRa). We used the total RNA (1 µg) for cDNA synthesis using a RevertAid First Strand cDNA Synthesis Kit (Thermo Fisher) according to the manufacturer's instructions. The mRNA expression levels were quantified on a 7500 Real‐time PCR System (Thermo Fisher) using TB Green Premix Ex Taq (TaKaRa Bio): human IGF‐1, VEGF, HGF, PDGFA, FGF7, and glyceraldehyde 3‐phosphate dehydrogenase (GAPDH) (Appendix Table S2). The relative expression levels of each gene were determined by the 2^‐ΔΔCT method.

IGF-1 mRNA = test: qRT-PCR growth factor gene expression in DP cells, IGF-1; assay type: cell-based, human; conditions: for mRNA_IGF1: DP cells
From the text: as §1, §2

Adipor1−/− mice = test: Mouse hair cycle modulation, hair cycle score, Adipor1−/− mice; assay type: in vivo; conditions: n = 5 mice/group, 35 days
From the text: To test whether the effect of P5 is mediated through AdipoR1 in vivo, we used Adipor1 ^−/− mice (Yamauchi et al, [2007]; Okada‐Iwabu et al, [2013]). […] Consistently, the anagen induction effects of P5 was abolished in the Adipor1 ^−/− mice (Fig 4I and J), in contrast to in WT mouse (Appendix Fig S2). […] Taken together, topical P5 treatment can accelerate hair growth through AdipoR1 in vivo.
For the hair cycle modulation experiment, Adipoq ^−/− (stock #008195; JAX) (Ma et al, [2002]), Adipor1 ^−/− (Yamauchi et al, [2007]; Okada‐Iwabu et al, [2013]), or C57BL/6 (KOATECH) female mice was used (Müller‐Röver et al, [2001]). They were housed (up to four animals per cage; 23 ± 2°C, 8:00–20:00, 12 h/12 h light/dark cycle). Mice were fed a standard chow diet and provided food and water ad libitum. Mice were randomly allocated and shaved dorsally at 7.5 weeks of age. […] The mouse hair growth score (a value from 0 to 100 based on the skin pigmentation and hair shaft density) was monitored and documented at designated days with the experimenters being blind to the conditions, following a previous study (Chai et al, [2019]). […] On day 35, we obtained dorsal cutaneous tissue for histological analysis: anagen induction scores (calculated using an assigned arbitrary score; telogen = 1, anagen I–VI = 2–7) (Müller‐Röver et al, [2001]). […]

[2] = P5 5μM, relative to Control = 1, replicate 1
[3] = P5 5μM, relative to Control = 1, replicate 2
[4] = P5 5μM, relative to Control = 1, replicate 3
[5] = P5 5μM, relative to Control = 1, replicate 4
[6] = P5 25μM, relative to Control = 1, replicate 1
[7] = P5 25μM, relative to Control = 1, replicate 2
[8] = P5 25μM, relative to Control = 1, replicate 3
[9] = P5 25μM, relative to Control = 1, replicate 4

GLYYF [P5, GST-fused (GST-P5) in pulldown assays]
Numbers of Ki-67-positive cells normalized to DAPI-stained cells ([1]; P5 5μM): 0.25 and 0.29 and 0.26 and 0.24 and 0.3 and 0.22 and 0.21 | Numbers of Ki-67-positive cells normalized to DAPI-stained cells ([1]; P5 25μM): 0.29 and 0.28 and 0.31 and 0.37 and 0.42 and 0.41 and 0.43 and 0.33 | Ki-67 in matrix cells of HF bulbs ([1]; ex vivo cultured human HFs, vs vehicle): increased significantly | mRNA_PDGFA (PDGFA mRNA; [2]): 1.237 | mRNA_PDGFA (PDGFA mRNA; [3]): 1.013 | mRNA_PDGFA (PDGFA mRNA; [4]): 1.221 | mRNA_PDGFA (PDGFA mRNA; [5]): 1.252 | mRNA_PDGFA (PDGFA mRNA; [6]): 1.5777 | mRNA_PDGFA (PDGFA mRNA; [7]): 1.8805 | mRNA_PDGFA (PDGFA mRNA; [8]): 1.22 | mRNA_PDGFA (PDGFA mRNA; [9]): 1.95 | PDGFA mRNA expression (PDGFA mRNA; P5-treated DP cells, n = 4): significantly increased | mRNA_IGF1 (IGF-1 mRNA; [2]): 1.775 | mRNA_IGF1 (IGF-1 mRNA; [3]): 0.9141 | mRNA_IGF1 (IGF-1 mRNA; [4]): 1.9981 | mRNA_IGF1 (IGF-1 mRNA; [5]): 0.5956 | mRNA_IGF1 (IGF-1 mRNA; P5 5μM, relative to Control = 1, replicate 5): 0.9696 | mRNA_IGF1 (IGF-1 mRNA; [6]): 4.048 | mRNA_IGF1 (IGF-1 mRNA; [7]): 1.581 | mRNA_IGF1 (IGF-1 mRNA; [8]): 3.012 | mRNA_IGF1 (IGF-1 mRNA; [9]): 4.414 | mRNA_IGF1 (IGF-1 mRNA; P5 25μM, relative to Control = 1, replicate 5): 1.2502 | IGF-1 mRNA expression (IGF-1 mRNA; P5-treated DP cells, n = 5): significantly increased | Anagen induction effects / hair cycle scores vs vehicle (Adipor1−/− mice): abolished
